Values of other authors in patent publication US11857530B2, “Cannabinoid formulations” (Endocanna Health, Inc., priority 2017, dated 2024).

Assays:
ABCB1 = ABCB1 (Homo sapiens, UniProt P08183)
CYP3A4 = CYP3A4 (Homo sapiens, UniProt P08684); conditions: after oromucosal dosing; for boost of THC and CBD levels by ketoconazole: co-administered CYP3A4 inhibitor ketoconazole; for boost of THC and CBD levels by the CYP3A4 inhibitor ketoconazole: clinical studies, co-administered ketoconazole
Chain of CYP3A4 (P08684 whole entry): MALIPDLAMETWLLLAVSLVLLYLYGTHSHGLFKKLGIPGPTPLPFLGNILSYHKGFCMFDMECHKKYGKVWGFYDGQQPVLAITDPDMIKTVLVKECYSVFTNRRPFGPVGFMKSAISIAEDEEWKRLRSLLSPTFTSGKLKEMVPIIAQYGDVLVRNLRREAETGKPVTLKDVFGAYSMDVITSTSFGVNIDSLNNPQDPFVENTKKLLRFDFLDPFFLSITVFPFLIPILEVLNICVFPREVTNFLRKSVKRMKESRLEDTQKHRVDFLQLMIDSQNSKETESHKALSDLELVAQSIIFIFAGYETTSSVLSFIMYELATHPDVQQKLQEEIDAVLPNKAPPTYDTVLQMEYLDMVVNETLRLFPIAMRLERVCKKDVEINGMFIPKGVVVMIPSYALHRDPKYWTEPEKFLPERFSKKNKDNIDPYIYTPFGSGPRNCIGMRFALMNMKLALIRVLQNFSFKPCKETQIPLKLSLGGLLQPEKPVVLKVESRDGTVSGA

Chain of ABCB1 (P08183 whole entry): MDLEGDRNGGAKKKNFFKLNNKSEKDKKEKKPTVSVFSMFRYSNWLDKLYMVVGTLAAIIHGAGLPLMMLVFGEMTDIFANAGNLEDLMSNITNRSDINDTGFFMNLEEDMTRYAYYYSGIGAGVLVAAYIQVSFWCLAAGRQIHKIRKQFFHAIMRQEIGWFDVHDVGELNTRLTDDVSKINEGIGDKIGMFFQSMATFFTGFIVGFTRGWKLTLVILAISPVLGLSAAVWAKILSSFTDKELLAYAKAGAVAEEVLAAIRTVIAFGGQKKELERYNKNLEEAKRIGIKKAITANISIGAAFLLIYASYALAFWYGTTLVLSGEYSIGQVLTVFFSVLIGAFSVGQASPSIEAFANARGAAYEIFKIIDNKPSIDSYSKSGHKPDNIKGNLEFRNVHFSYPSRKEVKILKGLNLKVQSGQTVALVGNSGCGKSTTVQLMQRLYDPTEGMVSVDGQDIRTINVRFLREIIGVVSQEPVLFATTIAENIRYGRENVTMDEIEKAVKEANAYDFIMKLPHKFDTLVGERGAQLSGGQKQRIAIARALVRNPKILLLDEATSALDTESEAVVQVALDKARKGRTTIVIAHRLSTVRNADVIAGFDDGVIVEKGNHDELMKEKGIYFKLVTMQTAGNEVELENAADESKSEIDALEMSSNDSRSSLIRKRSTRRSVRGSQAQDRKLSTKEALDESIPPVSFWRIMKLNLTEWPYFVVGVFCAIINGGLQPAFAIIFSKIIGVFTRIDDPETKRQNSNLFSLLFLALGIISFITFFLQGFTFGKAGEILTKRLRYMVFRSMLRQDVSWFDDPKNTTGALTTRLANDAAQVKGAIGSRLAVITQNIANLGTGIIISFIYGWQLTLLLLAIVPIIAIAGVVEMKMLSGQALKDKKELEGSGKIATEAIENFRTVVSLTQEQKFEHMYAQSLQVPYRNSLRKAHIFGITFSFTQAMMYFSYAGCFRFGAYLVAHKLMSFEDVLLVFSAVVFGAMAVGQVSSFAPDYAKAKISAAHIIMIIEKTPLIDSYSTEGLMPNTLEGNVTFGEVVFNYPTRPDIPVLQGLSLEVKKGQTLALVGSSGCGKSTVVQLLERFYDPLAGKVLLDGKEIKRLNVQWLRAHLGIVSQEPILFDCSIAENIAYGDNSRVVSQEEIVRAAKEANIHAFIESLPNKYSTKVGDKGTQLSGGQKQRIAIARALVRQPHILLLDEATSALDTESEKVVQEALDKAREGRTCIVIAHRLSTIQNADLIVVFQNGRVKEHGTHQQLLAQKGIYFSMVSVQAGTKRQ

CCCCCc1cc(O)c2c(c1)OC(C)(C)[C@@H]1CCC(C)=C[C@@H]21 [THC, Tetrahydrocannabinol]
THC levels, fold lower, Homozygous MINOR Alleles (T/T) (ABCB1; ABCB1 SNIP 2-01-AFMLG, genotype T/T): may have 2-fold lower
blood THC levels after consuming THC (ABCB1; users with homozygous alleles (T/T) at rs1045642 of ABCB1, relative to people with a different genotype): two-fold lower
boost of THC and CBD levels by ketoconazole (CYP3A4): approximately 2 fold
boost of THC and CBD levels by the CYP3A4 inhibitor ketoconazole (CYP3A4): dosing by approximately 2-fold

C=C(C)[C@@H]1CCC(C)=C[C@H]1c1c(O)cc(CCCCC)cc1O [CBD, Cannabidiol]
boost of THC and CBD levels by ketoconazole (CYP3A4): approximately 2 fold
boost of THC and CBD levels by the CYP3A4 inhibitor ketoconazole (CYP3A4): dosing by approximately 2-fold
